Source: ChEMBL document CHEMBL1177851, “Some new biologically active metal-based sulfonamide” (Eur J Med Chem, 2010)
Values after ≈ are worked out from the molar mass of the structure shown.

What was measured:
Escherichia coli = assay: Antibacterial activity against Escherichia coli at 50 ug/ml after 24 hrs by agar-well diffusion assay; type: functional; settings: read-out: IZ
Shigella flexneri = assay: Antibacterial activity against Shigella flexneri at 50 ug/ml after 24 hrs by agar-well diffusion assay; type: functional; settings: read-out: IZ
Pseudomonas aeruginosa = assay: Antibacterial activity against Pseudomonas aeruginosa at 50 ug/ml after 24 hrs by agar-well diffusion assay; type: functional; settings: read-out: IZ
Salmonella enterica = assay: Antibacterial activity against Salmonella typhi at 50 ug/ml after 24 hrs by agar-well diffusion assay; type: functional, Salmonella enterica subsp. enterica serovar Typhi; settings: read-out: IZ
Staphylococcus aureus = assay: Antibacterial activity against Staphylococcus aureus at 50 ug/ml after 24 hrs by agar-well diffusion assay; type: functional; settings: read-out: IZ
Bacillus subtilis = assay: Antibacterial activity against Bacillus subtilis at 50 ug/ml after 24 hrs by agar-well diffusion assay; type: functional; settings: read-out: IZ
Trichophyton longifusum = assay: Antifungal activity against Trichophyton longifusum at 200 ug/ml after 7 days; type: functional; settings: 168 h
Candida albicans = assay: Antifungal activity against Candida albicans at 200 ug/ml after 7 days; type: functional; settings: 168 h
Aspergillus flavus = assay: Antifungal activity against Aspergillus flavus at 200 ug/ml after 7 days; type: functional; settings: 168 h
Microsporum canis = assay: Antifungal activity against Microsporum canis at 200 ug/ml after 7 days; type: functional; settings: 168 h
Nakaseomyces glabratus = assay: Antifungal activity against Candida glabrata at 200 ug/ml after 7 days; type: functional; settings: 168 h
[1] = Cytotoxicity against Artemia salina leach eggs; settings: Egg, read-out: LD50 (the source's name)
Fusarium solani = assay: Antifungal activity against Fusarium solani at 200 ug/ml after 7 days; type: functional; settings: 168 h

Structure (SMILES)	zone of inhibition at 50 µg/mL (Escherichia coli)	zone of inhibition at 50 µg/mL (Shigella flexneri)	zone of inhibition at 50 µg/mL (Pseudomonas aeruginosa)	zone of inhibition at 50 µg/mL (Salmonella enterica)	zone of inhibition at 50 µg/mL (Staphylococcus aureus)	zone of inhibition at 50 µg/mL (Bacillus subtilis)	inhibition at 200 µg/mL (Trichophyton longifusum)	inhibition at 200 µg/mL (Candida albicans)	inhibition at 200 µg/mL (Aspergillus flavus)	inhibition at 200 µg/mL (Microsporum canis)	inhibition at 200 µg/mL (Nakaseomyces glabratus)	LC50 [1]	inhibition at 200 µg/mL (Fusarium solani)	MIC (Aspergillus flavus)	MIC (Trichophyton longifusum)	MIC (Candida albicans)	MIC (Microsporum canis)	MIC (Nakaseomyces glabratus)	MIC (Fusarium solani)
O=S(=O)(Nc1ncccn1)c1ccc(/N=C/c2cc(Br)ccc2O)cc1	17 mm	8 mm	12 mm	13 mm	16 mm	15 mm	81%	34%	78%	0%	80%	> 3.16 mM	48%						
Cc1cc(C)nc(NS(=O)(=O)c2ccc(/N=C/c3cc(Br)ccc3O)cc2)n1	18 mm	6 mm	13 mm	11 mm	17 mm	15 mm	80%	0%	38%	73%	0%	> 3.16 mM	20%						
C[C@@H]1[C@H](O)[C@@H](C)/C=C/C=C/C=C/C=C/C=C/C=C/C=C/[C@H](O[C@@H]2O[C@H](C)[C@@H](O)[C@H](N)[C@@H]2O)C[C@@H]2O[C@](O)(C[C@@H](O)C[C@@H](O)[C@H](O)CC[C@@H](O)C[C@@H](O)CC(=O)O[C@H]1C)C[C@H](O)[C@H]2C(=O)O [AMPHOTERICIN B]														20 µg/mL (≈ 21.6 µM)					
C[C@@H](O)[C@H]1C(=O)N2C(C(=O)O)=C(SCCNC=N)C[C@H]12 [IMIPENEM ANHYDROUS]	24 mm	20 mm	24 mm	25 mm	26 mm	26 mm													
Clc1ccc(COC(Cn2ccnc2)c2ccc(Cl)cc2Cl)c(Cl)c1 (stereo not drawn) [MICONAZOLE]															70 µg/mL (≈ 168 µM)	111 µg/mL (≈ 266 µM)	98.4 µg/mL (≈ 236 µM)	73.2 µg/mL (≈ 176 µM)	111 µg/mL (≈ 266 µM)
